What was measured:
mGtPEBB [1] = target: T1, mGtPEBB (Guillardia theta, UniProt L1IWQ9, R298K); test: UV/Vis spectral shift; anaerobic reductase assay with HPLC; format: biochemical; conditions: pH 7.5, ferredoxin from Synechococcus sp. PCC7002, NADPH regenerating system
T1 construct: gene GUITHDRAFT_96430; GST fusion in E. coli, cut by TEV protease, leaving N-terminal Gly-Gly; single-domain protein; codon-optimized gene

mGtPEBB [2] = target: T2, mGtPEBB (Guillardia theta, UniProt L1IWQ9, R298L); test: as above; format: binding; conditions: pH 7.5, ferredoxin from Synechococcus sp. PCC7002, NADPH regenerating system
T2 construct: gene GUITHDRAFT_96430; GST fusion in E. coli, cut by TEV protease, leaving N-terminal Gly-Gly; single-domain protein; codon-optimized gene

mGtPEBB [3] = target: T3, mGtPEBB (Guillardia theta, UniProt L1IWQ9, D182N); test: as above; format: binding; conditions: pH 7.5, ferredoxin from Synechococcus sp. PCC7002, NADPH regenerating system
T3 construct: gene GUITHDRAFT_96430; GST fusion in E. coli, cut by TEV protease, leaving N-terminal Gly-Gly; single-domain protein; codon-optimized gene

mGtPEBB [4] = target: T4, mGtPEBB (Guillardia theta, UniProt L1IWQ9, R298S); test: as above; format: binding; conditions: pH 7.5, ferredoxin from Synechococcus sp. PCC7002, NADPH regenerating system
T4 construct: gene GUITHDRAFT_96430; GST fusion in E. coli, cut by TEV protease, leaving N-terminal Gly-Gly; single-domain protein; codon-optimized gene

mGtPEBB [5] = target: T5, mGtPEBB (Guillardia theta, UniProt L1IWQ9, R298M); test: as above; format: binding; conditions: pH 7.5, ferredoxin from Synechococcus sp. PCC7002, NADPH regenerating system
T5 construct: gene GUITHDRAFT_96430; GST fusion in E. coli, cut by TEV protease, leaving N-terminal Gly-Gly; single-domain protein; codon-optimized gene

mGtPEBB [6] = target: T6, mGtPEBB (Guillardia theta, UniProt L1IWQ9, D302N); test: as above; format: binding; conditions: pH 7.5, ferredoxin from Synechococcus sp. PCC7002, NADPH regenerating system
T6 construct: gene GUITHDRAFT_96430; GST fusion in E. coli, cut by TEV protease, leaving N-terminal Gly-Gly; single-domain protein; codon-optimized gene

mGtPEBB [7] = target: T7, mGtPEBB (Guillardia theta, UniProt L1IWQ9); test: X-ray crystal structure of complex, […] Å; UV/Vis spectral shift; anaerobic reductase assay with HPLC; format: binding; conditions: co-crystal at pH 8.5; assay pH 7.5 with ferredoxin from Synechococcus sp. PCC7002, NADPH regenerating system; active site, flipped orientation
T7 construct: gene GUITHDRAFT_96430; GST fusion in E. coli, cut by TEV protease, leaving N-terminal Gly-Gly; single-domain protein; codon-optimized gene
T7 sequence (L1IWQ9 84-356): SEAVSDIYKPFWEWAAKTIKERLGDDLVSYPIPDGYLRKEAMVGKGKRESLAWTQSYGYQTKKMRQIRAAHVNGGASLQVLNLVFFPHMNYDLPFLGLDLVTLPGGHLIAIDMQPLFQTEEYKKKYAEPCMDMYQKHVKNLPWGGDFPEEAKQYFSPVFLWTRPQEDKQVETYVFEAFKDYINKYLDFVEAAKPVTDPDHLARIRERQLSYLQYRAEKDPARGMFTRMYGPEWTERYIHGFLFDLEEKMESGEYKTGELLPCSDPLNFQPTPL

mGtPEBB [8] = target: T8, mGtPEBB (Guillardia theta, UniProt L1IWQ9, R298A); test: UV/Vis spectral shift; anaerobic reductase assay with HPLC; format: biochemical; conditions: pH 7.5, ferredoxin from Synechococcus sp. PCC7002, NADPH regenerating system; trace conversion only
T8 construct: gene GUITHDRAFT_96430; GST fusion in E. coli, cut by TEV protease, leaving N-terminal Gly-Gly; single-domain protein; codon-optimized gene

mGtPEBB [9] = target: T7, mGtPEBB; test: UV/Vis spectral shift; HPLC of products; format: binding; conditions: pH 7.5, 10 μM protein, 10 μM bilin; unnatural ligand, not reduced
mGtPEBB [10] = target: T5, mGtPEBB; test: UV/Vis spectral shift; anaerobic reductase assay with HPLC; format: biochemical; conditions: pH 7.5, ferredoxin from Synechococcus sp. PCC7002, NADPH regenerating system; product DHBV, low efficiency

T5 sequence (L1IWQ9 entry or part of it R298M): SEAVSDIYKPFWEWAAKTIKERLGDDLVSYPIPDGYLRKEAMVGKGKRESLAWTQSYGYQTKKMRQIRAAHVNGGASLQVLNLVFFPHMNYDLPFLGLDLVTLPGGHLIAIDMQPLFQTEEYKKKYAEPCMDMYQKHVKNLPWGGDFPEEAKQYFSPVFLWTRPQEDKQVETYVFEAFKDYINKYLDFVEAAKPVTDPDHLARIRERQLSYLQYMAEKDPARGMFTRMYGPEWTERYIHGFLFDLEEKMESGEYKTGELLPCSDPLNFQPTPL
T3 sequence (L1IWQ9 entry or part of it D182N): as the sequence (L1IWQ9 entry or part of it R298M) above, with D99N, M215R counted along it
T4 sequence (L1IWQ9 entry or part of it R298S): as the sequence (L1IWQ9 entry or part of it R298M) above, with M215S counted along it
T1 sequence (L1IWQ9 entry or part of it R298K): as the sequence (L1IWQ9 entry or part of it R298M) above, with M215K counted along it
T2 sequence (L1IWQ9 entry or part of it R298L): as the sequence (L1IWQ9 entry or part of it R298M) above, with M215L counted along it
T8 sequence (L1IWQ9 entry or part of it R298A): as the sequence (L1IWQ9 entry or part of it R298M) above, with M215A counted along it
T6 sequence (L1IWQ9 entry or part of it D302N): as the sequence (L1IWQ9 entry or part of it R298M) above, with M215R, D219N counted along it

UV/Vis spectral shift; anaerobic reductase assay with HPLC (mGtPEBB [10])	SMILES	UV/Vis spectral shift; anaerobic reductase assay with HPLC (mGtPEBB [1])	UV/Vis spectral shift; anaerobic reductase assay with HPLC (mGtPEBB [2])	UV/Vis spectral shift; anaerobic reductase assay with HPLC (mGtPEBB [3])	UV/Vis spectral shift; anaerobic reductase assay with HPLC (mGtPEBB [4])	UV/Vis spectral shift; anaerobic reductase assay with HPLC (mGtPEBB [5])	UV/Vis spectral shift; anaerobic reductase assay with HPLC (mGtPEBB [6])	X-ray crystal structure of complex, 1.65 Å; UV/Vis spectral shift; anaerobic red (mGtPEBB [7])	UV/Vis spectral shift; anaerobic reductase assay with HPLC (mGtPEBB [8])	UV/Vis spectral shift; HPLC of products (mGtPEBB [9])
	C=CC1=C(C)C(=O)NC1=CC1=NC(=Cc2[nH]c(CC3NC(=O)C(C=C)=C3C)c(C)c2CCC(=O)O)C(CCC(=O)O)=C1C (stereo not shown) [DHBV]	Replacing Arg-215 with lysine maintained side chain charge and size to some extent	the binding spectrum of R215L was very similar to the WT spectrum	caused a blue shift of the maximum of the DHBV-binding spectrum	both R215S and R215M showed binding spectra similar to WT	both R215S and R215M showed binding spectra similar to WT	caused a blue shift of the maximum of the DHBV-binding spectrum	Both chains showed clear density for DHBV already after molecular replacement	only trace amounts of PEB were detected for R215A	
R215M was able to convert BV to DHBV	C=CC1=C(C)C(=Cc2[nH]c(C=C3N=C(C=C4NC(=O)C(C)=C4C=C)C(C)=C3CCC(=O)O)c(CCC(=O)O)c2C)NC1=O [BV]									indicated binding of this unnatural substrate
